# According to publication PMC7180134 (Angewandte Chemie (International ed. in English), 2020):
# Target: T1, human NTH1 (hNTH1, endonuclease III-like protein 1) (Homo sapiens, UniProt P78549)
# T1 sequence (P78549 23-304): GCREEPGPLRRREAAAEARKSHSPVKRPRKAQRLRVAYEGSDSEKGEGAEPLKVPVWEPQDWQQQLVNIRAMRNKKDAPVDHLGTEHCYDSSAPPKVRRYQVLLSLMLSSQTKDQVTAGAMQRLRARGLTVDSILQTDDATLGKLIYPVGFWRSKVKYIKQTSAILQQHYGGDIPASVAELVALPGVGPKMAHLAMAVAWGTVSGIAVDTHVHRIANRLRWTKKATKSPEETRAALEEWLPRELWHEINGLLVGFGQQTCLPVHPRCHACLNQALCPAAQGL
# Type: biochemical
compound,measurement,value
Nc1ncnc2c1c(-c1cccc(OCc3ccccc3)c1)cn2[C@H]1C[C@@H](CN2CCC2)C1 [NVP-AEW541],IC50,0.78 µM
